From the NIST ThermoML archive (doi:10.1021/je0503554)
“And” between values parts separate entries of the source, which are not always exact repeats. Equal values may be shown once. ± gives the expanded uncertainty stated by the source.

Assay: activity coefficient (dimensionless); of the first substance listed, at infinite dilution; xn = mol fraction of the nth substance listed
Settings: Liquid, Chromatography, x1 = 0

CO [methanol] + CCCCCC[n+]1ccn(C)c1.O=S(=O)([N-]S(=O)(=O)C(F)(F)F)C(F)(F)F
activity coefficient (301.95 K): 1.46 ± 0.1 | activity coefficient (312.45 K): 1.34 ± 0.09 | activity coefficient (323.05 K): 1.22 ± 0.08 | activity coefficient (333.45 K): 1.1 ± 0.07 | activity coefficient (343.95 K): 0.99 ± 0.06 | activity coefficient (354.45 K): 0.93 ± 0.06

CCCCc1ccccc1 [butylbenzene] + CCCCCC[n+]1ccn(C)c1.O=S(=O)([N-]S(=O)(=O)C(F)(F)F)C(F)(F)F
activity coefficient (354.25 K): 2.72 ± 0.19 | activity coefficient (364.65 K): 2.69 ± 0.18 | activity coefficient (375.15 K): 2.66 ± 0.18 | activity coefficient (385.65 K): 2.62 ± 0.18

CCCO [propan-1-ol] + CCCCCC[n+]1ccn(C)c1.O=S(=O)([N-]S(=O)(=O)C(F)(F)F)C(F)(F)F
activity coefficient (312.45 K): 2.15 ± 0.15 | activity coefficient (323.05 K): 1.86 ± 0.13 | activity coefficient (333.45 K): 1.63 ± 0.11 | activity coefficient (343.95 K): 1.43 ± 0.09 | activity coefficient (354.45 K): 1.27 ± 0.08

CCCc1ccccc1 [propylbenzene] + CCCCCC[n+]1ccn(C)c1.O=S(=O)([N-]S(=O)(=O)C(F)(F)F)C(F)(F)F
activity coefficient (333.35 K): 2.1 ± 0.14 | activity coefficient (343.85 K): 2.08 ± 0.14 | activity coefficient (354.25 K): 2.03 ± 0.14 | activity coefficient (364.65 K): 2.02 ± 0.14 | activity coefficient (375.15 K): 2 ± 0.14 | activity coefficient (385.65 K): 1.96 ± 0.13

CCCCCC(=O)OC [methyl hexanoate] + CCCCCC[n+]1ccn(C)c1.O=S(=O)([N-]S(=O)(=O)C(F)(F)F)C(F)(F)F
activity coefficient (343.65 K): 1.39 ± 0.09 | activity coefficient (354.15 K): 1.35 ± 0.09 | activity coefficient (364.65 K): 1.29 ± 0.08 | activity coefficient (375.15 K): 1.25 ± 0.08 | activity coefficient (385.65 K): 1.2 ± 0.08

ClC(Cl)Cl [trichloromethane] + CCCCCC[n+]1ccn(C)c1.O=S(=O)([N-]S(=O)(=O)C(F)(F)F)C(F)(F)F
activity coefficient (301.75 K): 0.67 ± 0.045 | activity coefficient (301.85 K): 0.67 ± 0.045 | activity coefficient (312.25 K): 0.68 ± 0.046 | activity coefficient (312.45 K): 0.68 ± 0.046 | activity coefficient (322.85 K): 0.69 ± 0.046 | activity coefficient (323.05 K): 0.7 ± 0.047 | activity coefficient (333.45 K): 0.71 ± 0.047 | activity coefficient (343.95 K): 0.72 ± 0.048

Cc1ccccc1 [toluene] + CCCCCC[n+]1ccn(C)c1.O=S(=O)([N-]S(=O)(=O)C(F)(F)F)C(F)(F)F
activity coefficient (307.05 K): 1.04 ± 0.07 | activity coefficient (312.35 K): 1.04 ± 0.07 | activity coefficient (322.85 K): 1.06 ± 0.07 | activity coefficient (333.35 K): 1.06 ± 0.07 | activity coefficient (343.85 K): 1.08 ± 0.07

C1=CCCC=C1 [1,3-cyclohexadiene] + CCCCCC[n+]1ccn(C)c1.O=S(=O)([N-]S(=O)(=O)C(F)(F)F)C(F)(F)F
activity coefficient (312.05 K): 1.8 ± 0.12 | activity coefficient (322.65 K): 1.76 ± 0.12 | activity coefficient (333.15 K): 1.72 ± 0.12 | activity coefficient (343.65 K): 1.67 ± 0.11 | activity coefficient (354.25 K): 1.62 ± 0.11

CCCCC(=O)OC [methyl pentanoate] + CCCCCC[n+]1ccn(C)c1.O=S(=O)([N-]S(=O)(=O)C(F)(F)F)C(F)(F)F
activity coefficient (322.75 K): 1.04 ± 0.07 | activity coefficient (333.25 K): 1.03 ± 0.06 | activity coefficient (343.65 K): 1.01 ± 0.06 | activity coefficient (354.15 K): 0.99 ± 0.06

CCCCCO [pentan-1-ol] + CCCCCC[n+]1ccn(C)c1.O=S(=O)([N-]S(=O)(=O)C(F)(F)F)C(F)(F)F
activity coefficient (333.25 K): 2.18 ± 0.15 | activity coefficient (343.75 K): 2 ± 0.14 | activity coefficient (354.05 K): 1.8 ± 0.12 | activity coefficient (364.55 K): 1.63 ± 0.11 | activity coefficient (374.95 K): 1.51 ± 0.1

C=CCCCCCCCC [1-decene] + CCCCCC[n+]1ccn(C)c1.O=S(=O)([N-]S(=O)(=O)C(F)(F)F)C(F)(F)F
activity coefficient (312.25 K): 16 ± 1.1 | activity coefficient (322.85 K): 15.2 ± 1 | activity coefficient (333.15 K): 14.1 ± 0.96 | activity coefficient (333.25 K): 14.4 ± 0.98 | activity coefficient (343.75 K): 13.5 and 13.3 | activity coefficient (354.15 K): 13.1 ± 0.89 | activity coefficient (364.55 K): 11.9 ± 0.81

CCCC=O [butanal] + CCCCCC[n+]1ccn(C)c1.O=S(=O)([N-]S(=O)(=O)C(F)(F)F)C(F)(F)F
activity coefficient (301.75 K): 0.578 ± 0.041 | activity coefficient (312.25 K): 0.576 ± 0.041 | activity coefficient (322.85 K): 0.574 ± 0.041 | activity coefficient (333.35 K): 0.572 ± 0.041

c1ccccc1 [benzene] + CCCCCC[n+]1ccn(C)c1.O=S(=O)([N-]S(=O)(=O)C(F)(F)F)C(F)(F)F
activity coefficient (301.65 K): 0.779 and 0.778 | activity coefficient (306.95 K): 0.776 ± 0.051 | activity coefficient (312.25 K): 0.776 ± 0.051 | activity coefficient (322.75 K): 0.777 ± 0.051 | activity coefficient (322.85 K): 0.773 ± 0.051 | activity coefficient (333.25 K): 0.777 and 0.774 | activity coefficient (343.75 K): 0.769 ± 0.05

CCCC(=O)OC [methyl butanoate] + CCCCCC[n+]1ccn(C)c1.O=S(=O)([N-]S(=O)(=O)C(F)(F)F)C(F)(F)F
activity coefficient (322.75 K): 0.868 ± 0.055 | activity coefficient (333.25 K): 0.874 ± 0.056 | activity coefficient (343.65 K): 0.877 ± 0.056 | activity coefficient (354.15 K): 0.884 ± 0.056

CCCCCCC=O [heptanal] + CCCCCC[n+]1ccn(C)c1.O=S(=O)([N-]S(=O)(=O)C(F)(F)F)C(F)(F)F
activity coefficient (343.55 K): 1.11 ± 0.07 | activity coefficient (354.05 K): 1.07 ± 0.068 | activity coefficient (364.45 K): 1.02 ± 0.064 | activity coefficient (374.95 K): 0.97 ± 0.061 | activity coefficient (385.35 K): 0.92 ± 0.058 | activity coefficient (395.95 K): 0.9 ± 0.057

CCCCCCCCCC [decane] + CCCCCC[n+]1ccn(C)c1.O=S(=O)([N-]S(=O)(=O)C(F)(F)F)C(F)(F)F
activity coefficient (307.05 K): 28.5 ± 1.9 | activity coefficient (312.35 K): 27.4 ± 1.9 | activity coefficient (322.85 K): 25.6 ± 1.8 | activity coefficient (333.35 K): 22.9 ± 1.6

CCCCCCCC [octane] + CCCCCC[n+]1ccn(C)c1.O=S(=O)([N-]S(=O)(=O)C(F)(F)F)C(F)(F)F
activity coefficient (300.95 K): 15.2 ± 1 | activity coefficient (312.25 K): 14.3 ± 0.98 | activity coefficient (322.85 K): 13.2 ± 0.9 | activity coefficient (333.25 K): 12.2 ± 0.84 | activity coefficient (343.75 K): 11.5 ± 0.78

CC(C)O [propan-2-ol] + CCCCCC[n+]1ccn(C)c1.O=S(=O)([N-]S(=O)(=O)C(F)(F)F)C(F)(F)F
activity coefficient (301.65 K): 1.93 ± 0.13 | activity coefficient (312.25 K): 1.68 ± 0.11 | activity coefficient (322.75 K): 1.49 ± 0.1 | activity coefficient (333.25 K): 1.33 ± 0.09 | activity coefficient (343.75 K): 1.21 ± 0.08 | activity coefficient (354.05 K): 1.09 ± 0.07

CC#N [acetonitrile] + CCCCCC[n+]1ccn(C)c1.O=S(=O)([N-]S(=O)(=O)C(F)(F)F)C(F)(F)F
activity coefficient (312.25 K): 0.456 ± 0.036 | activity coefficient (322.85 K): 0.446 ± 0.036 | activity coefficient (333.35 K): 0.434 ± 0.035 | activity coefficient (343.85 K): 0.426 ± 0.035 | activity coefficient (354.25 K): 0.413 ± 0.034

C=CCCCCCCC [1-nonene] + CCCCCC[n+]1ccn(C)c1.O=S(=O)([N-]S(=O)(=O)C(F)(F)F)C(F)(F)F
activity coefficient (312.25 K): 12.5 ± 0.85 | activity coefficient (322.75 K): 11.8 ± 0.81 | activity coefficient (333.15 K): 11.2 ± 0.76 | activity coefficient (333.35 K): 11.1 ± 0.75 | activity coefficient (343.75 K): 10.5 ± 0.71 | activity coefficient (354.15 K): 9.99 ± 0.68 | activity coefficient (364.55 K): 9.54 ± 0.65

C1=CCCCC1 [cyclohexene] + CCCCCC[n+]1ccn(C)c1.O=S(=O)([N-]S(=O)(=O)C(F)(F)F)C(F)(F)F
activity coefficient (301.85 K): 3.41 ± 0.23 | activity coefficient (312.25 K): 3.24 ± 0.22 | activity coefficient (322.85 K): 3.08 ± 0.21 | activity coefficient (333.25 K): 2.94 ± 0.2 | activity coefficient (343.75 K): 2.83 ± 0.19

CCC(=O)OC [methyl propanoate] + CCCCCC[n+]1ccn(C)c1.O=S(=O)([N-]S(=O)(=O)C(F)(F)F)C(F)(F)F
activity coefficient (322.75 K): 0.681 ± 0.046 | activity coefficient (333.25 K): 0.683 ± 0.046 | activity coefficient (343.65 K): 0.685 ± 0.046 | activity coefficient (354.15 K): 0.688 ± 0.046
